Test results reported in patent US9822414B2, “In vitro method for predicting in vivo genotoxicity of chemical compounds” (priority 2011, dated 2017).
Several values for one entry are separate records, joined by “and”; a condition that tells them apart may be missing. Identical values can stand only once.

Key:
rodents = conditions: cited from earlier work; for In vivo GTX: positive when at least one in vivo assay (MN, CA) positive, equivocal considered positive
PWWP2B = test: Gene expression of PWWP2B in HepG2 cells exposed to compound (microarray, log2 treatment:control ratio); type: cell-based, human
NR0B2 = test: Gene expression of NR0B2 in HepG2 cells exposed to compound (microarray, log2 treatment:control ratio); type: cell-based, human
HepG2 cell [1] = test: Class prediction of in vivo genotoxicity by the method of the invention (Ames stratification plus three-gene expression in HepG2); conditions: for Prediction (class prediction results using the method of the invention): 62 compounds, three replicates, HepG2 24 h
[2] = tested on: conventional in vitro genotoxicity assays; conditions: cited from earlier work
Salmonella typhimurium = conditions: cited from earlier work
HepG2 cell [3] = tested on: HepG2 cell
LOC100505880 = test: Gene expression of LOC100131914/LOC100505880 in HepG2 cells exposed to compound (microarray, log2 treatment:control ratio); type: cell-based, human

Row | Compound | Standard (in vivo genotoxicity designation) (rodents) | In vivo GTX (rodents) | Log2 treatment: control ratio PWWP2B (PWWP2B) | PWWP2B above or below the reference value (PWWP2B) | NR0B2 above or below the reference value (NR0B2) | Prediction (class prediction results using the method of the invention) (HepG2 cell [1]) | In vitro GTX [2] | Ames (Salmonella typhimurium) | At least ⅔ genes +? (HepG2 cell [3]) | Average result over three measurements (HepG2 cell [3]) | LOC100505880 above or below the reference value (LOC100505880) | Classification of NGTX compounds by the method of the invention (false positives) (HepG2 cell [1]; in vivo NGTX compounds) | Results in the conventional in vitro genotoxicity assays ([2]; see Table 5) | Log2 treatment: control ratio NR0B2 (NR0B2) | Log2 treatment: control ratio LOC100505880 (LOC100505880)
1 | COc1cc2c(c3oc(=O)c4c(c13)CCC4=O)[C@@H]1C=CO[C@@H]1O2 [AFB1] | GTX | + | 0.098 and 0.275 and 0.088 | + (Plus sign indicates a value above the reference value) | + (Plus sign indicates a value above the reference value) | GTX | + | + | GTX | GTX | + (Plus sign indicates a value above the reference value) |  |  |  | 
2 | COc1ccc(N)cc1 [Anis] | NGTX |  | 0.013 and 0.076 and 0.253 | + (Plus sign indicates a value above the reference value) | + (Plus sign indicates a value above the reference value) | GTX | + | + | GTX | GTX | + (Plus sign indicates a value above the reference value) | misclassification | positive results |  | 
3 | Cc1c2ccccc2c(C)c2c1ccc1ccccc12 [DMBA] | GTX | + | −0.155 and 0.088 and −0.102 |  |  | GTX+ | + | + |  | GTX |  |  |  | 0.064 and −0.116 and −0.076 | 0.08 and −0.059 and −0.025
4 | [NH2][Pt]([NH2])([Cl])[Cl] [cisPt] | GTX | + | 0.095 and −0.147 and −0.18 |  | + (Plus sign indicates a value above the reference value) | GTX | + | + | GTX | GTX | + (Plus sign indicates a value above the reference value) |  |  |  | 
